From paper PMC9298260, “An Immunomodulatory Peptide Dendrimer Inspired from Glatiramer Acetate” (Angewandte Chemie (International Ed. in English), 2021)

Tests used:
Assay in all cases: IL-1Ra release from human primary monocytes, immunoassay (ELISA) of supernatants
Format in all cases: cell-based
[1] = tested on: IL-1Ra release from human primary monocytes; design: key: +: Ability to induce IL-1Ra on primary monocytes after 48 h of incubation; Ability to induce IL-1Ra on primary monocytes after 48 h of incubation; conditions: for Act. (ability to induce IL-1Ra): primary monocytes, 48 h; for IL-1Ra: ability to induce IL-1Ra on primary monocytes after 48 h of incubation, class + / -
Protocol: (§1) As an activity screen we focused on interleukin‐1 receptor antagonist (IL‐1Ra), a cytokine released by circulating antigen presenting cells (APC) in response to GA.[15, 35] […] To test our dendrimers, we quantified by immunoassay the release of IL‐1Ra from human primary monocytes of healthy donors, an easily accessible type of APC, stimulated or not by addition of lipopolysaccharide (LPS), which in our hands provided a reliable read‐out.[15] We tested at defined weight/volume (25 and 50 μg mL^−1 compound as typically reported for GA)[15, 35] to account for a possible activity increase with MW as often observed with dendrimers when using molarity. In the initial screen the levels of secreted IL‐1Ra remained below 1 ng mL^−1 for all the smaller test compounds as well as with the linear peptide analogs of GA.
(§2) Figure 2 Cytokine level of IL‐1Ra in supernatants of primary human monocytes of healthy donors treated with peptide dendrimers, evaluated by ELISA (bars, left vertical axis) and mRNA levels (▴, right vertical axis). […] For mRNA levels evaluation, 2×10^6 cells 3 mL^−1 in 6 well plates were incubated with 50 μg mL^−1 dendrimer or GA for 18 h. […]
(§3) Enzyme-linked immunosorbent assay (ELISA)
(§4) Monocytes (5×10^4 cells/200 μL well; 96-well plates) were preincubated for 1 h with or without compounds in RPMI-1640 medium supplemented with 10% heat-inactivated FBS, 50 μg/mL streptomycin, 50 U/mL penicillin, 2 mM L-glutamine, and 5 μg/mL polymyxin B sulfate and then cultured for 48 h in the presence or absence of LPS (100 ng/mL) (2). The production of IL-1Ra was measured in culture supernatants by commercially available enzyme immunoassay according to manufacture protocol.
(§5) Figure S2. Cytokine level of IL-1Ra in supernatants of monocytes for active dendrimers and analogues evaluated by ELISA assay on primary human monocytes of healthy donors. 5×10^4 cells/200 µL in 96 well plates, were incubated with dendrimers or GA as a control for 48 h in presence or absence of LPS (100 ng/mL), in a range of concentrations (50-25 µg/mL) (mean ± SD, n = 2 different experiments). The results are present as the difference between each sample and the non-treated sample to take into account the difference between base line for each donor.
(§6) Figure S3. Cytokine level of IL-1Ra in supernatants of monocytes for active dendrimers and […]
(§7) presence or absence of LPS (100 ng/mL), in a range of concentrations (100-12.5 µg/mL) (mean ± SD, n = 3 different experiments). […]

[2] = tested on: IL-1Ra release from human primary monocytes; conditions: primary human monocytes of healthy donors, 25 and 50 μg mL^−1, 48 h
Protocol: as §1, §2, §3, §4, §5, §6, §7

[3] = tested on: IL-1Ra release from human primary monocytes; design: key: +: Ability to induce IL‐1Ra on primary monocytes after 48 h of incubation in the presence of 25–50 μg mL^−1 compound; Ability to induce IL‐1Ra on primary monocytes after 48 h of incubation in the presence of 25–50 μg mL^−1 compound; conditions: for Act. (ability to induce IL-1Ra): Table 1, 48 h, 25–50 μg mL^−1 compound; for IL-1Ra: 48 h
Protocol: as §1, §2, §3, §4, §5, §6, §7

Row | Substance | Act. (ability to induce IL-1Ra) ([1]; Table S1 initial library) | IL-1Ra [1] | IL-1Ra release activity (in words) [2] | Act. (ability to induce IL-1Ra) ([1]; Table S2 analogs of 1 and 4) | Act. (ability to induce IL-1Ra) [3] | IL-1Ra ([3]; supplement s001.csv) | IL-1Ra ([3]; supplement s003.zip SMILES csv)
1 | (ClAcKA)4(KEYA)2KKAK-OH [ClAc7] | - | - |  |  |  |  | 
2 | (AcKAE)4(KAEK)2KYYA-OH [Ac18] | - | - |  |  |  |  | 
3 | (ClAcAKA)8(KYEK)4(KEKA)2KAKY-OH [ClAc3] | - | - |  |  |  |  | 
4 | (FumKA)8(KKAKE)4(KYKAKA)2KAYKKA-OH [Fum4] | - | - | abolished |  |  |  | 
5 | (ClAcKYA)4(KEA)2KKKA-OH [ClAc14] | - | - |  |  |  |  | 
6 | (AcKA)8(KKKAK)4(KEKA)2KAKEAYCA-NH2 [Ac36] |  | + | preserved | + | + | + | +
7 | (AcAKE)4(KKAY)2KYKY-NH2 [Ac22] |  | - |  |  |  |  | 
8 | (KAEKAYA)4(KEKYAKA)2KEKYKA-NH2 [compound 2] | - | - |  |  | − |  | 
9 | (AcKYA)4(KEA)2KKKA-OH [Ac14] | - | - |  |  |  |  | 
10 | (ClAcAKA)4(KEK)2KYEY-OH [ClAc11] | - | - |  |  |  |  | 
11 | (ClAcKA)4(KAYE)2KK-OH [ClAc6] | - | - |  |  |  |  | 
12 | (FumAKA)4(KEY)2KYKK-NH2 [Fum15] | - | - |  |  |  |  | 
13 | (AcKAK)4(KAEY)2KAEA-OH [Ac20] |  | - |  |  |  |  | 
14 | (KA)8(KKKAK)4(KEKA)2KAKEAYCA-NH2 [compound 36] |  | - | preserved | + | + | + | 
15 | (AcAKA)8(KYEK)4(KEKA)2KAKY-OH [Ac3] | - | - |  |  |  |  | 
16 | (ClAcKAA)4(KYYE)2KAY-NH2 [AcCl19] |  | - |  |  |  |  | 
17 | (FumKA)8(KAK)4(KEKA)2KAKEAYCA-NH2 [Fum1] | - | - | abolished |  |  |  | 
18 | (AcAYK)4(KE)2KKAA-OH [Ac9] | - | - |  |  |  |  | 
19 | (AcAKA)4(KEY)2KYKK-NH2 [Ac15] | - | - |  |  |  |  | 
20 | (AK)8(KAK)4(KEKA)2KAKEAYCA-NH2 [compound 34] |  | + | preserved | + | + | + | +
21 | (KA)8(KAK)4(KEKA)2KAKEAYCA-NH2)2 (disulfide) [1-1, disulfide bridged dimer of 1] |  | + | active | + | + | + | +
22 | (ClAcAKA)4(KKEY)2KE-OH [ClAc10] | - | - |  |  |  |  | 
23 | (AK)4(KAEAKAKE)2KKEYEYCA-NH2 [compound 26] |  | - |  |  |  |  | 
24 | (KYA)4(KAE)2KAEYKCA-NH2 [compound 23] |  | - |  |  |  |  | 

Row | Substance | Act. (ability to induce IL-1Ra) ([1]; Table S1 initial library) | IL-1Ra [1] | IL-1Ra release activity (in words) [2] | Act. (ability to induce IL-1Ra) ([1]; Table S2 analogs of 1 and 4) | Act. (ability to induce IL-1Ra) [3] | IL-1Ra ([3]; supplement s001.csv) | IL-1Ra ([3]; supplement s003.zip SMILES csv)
25 | (FumKA)8(KKKAK)4(KEKA)2KAKEAYCA-NH2 [Fum36] |  | + | preserved | + | + | + | +
26 | (YKAKAKY)4(KEAKAKY)2KAKEYEY-OH [compound 29] |  | - |  |  |  |  | 
27 | (AK)4(KAEAKAKE)2KKEYEYC(Coumarin)A-NH2 [26Coum] |  | - |  |  |  |  | 
28 | (KK)8(KAK)4(KEKA)2KAKEAYCA-NH2 [compound 35] |  | + | preserved | + | + | + | +
29 | (KA)8(KKAKE)4(KYKAKA)2KAYKKA-OH [sr-4] |  | + | as active as the pure L‐enantiomers | + | + | + | +
30 | (AK)8(KAKAKY)4(KAKEYEY)2KAKEYEY-NH2 [compound 5] | - | - |  |  | − |  | 
31 | (ClAcKAE)4(KAEK)2KYYA-OH [ClAc18] | - | - |  |  |  |  | 
32 | (FumAKE)4(KAYA)2KKKK-NH2 [Fum16] | - | - |  |  |  |  | 
33 | (AcKEAKY)4(KKYEA)2KEKAYKA-NH2 [Ac27] |  | - |  |  |  |  | 
34 | (KA)8(KAK)4(KEKA)2KAKEAYC(Fluo)A-NH2 [1Fl, analog of 1 bearing a fluorescein label at the dendrimer core] |  | + |  | + | + | + | +
35 | (AcAKA)4(KEK)2KYEY-OH [Ac11] | - | - |  |  |  |  | 
36 | (ClAcKEAKY)4(KKYEA)2KEKAYKA-NH2 [ClAc27] |  | - |  |  |  |  | 
37 | (AcAKE)4(KAYA)2KKKK-NH2 [Ac16] | - | - |  |  |  |  | 
38 | (KA)8(KAK)4(KEKA)2KAKEAYCA-NH2 [sr-1] |  | + | as active as the pure L‐enantiomers | + | + | + | +
39 | (ClAcAKE)4(KKAY)2KYKY-NH2 [ClAc22] |  | - |  |  |  |  | 
40 | (ClAcK)4(KEAKAKEY)2KAKEYEY-OH [ClAc25] |  | - |  |  |  |  | 
41 | (AcKA)8(KAK)4(KEKA)2KAKEAYCA-NH2 [Ac1] | - | - | abolished |  | − |  | 
42 | (AcAKA)4(KKEY)2KE-OH [Ac10] | - | - |  |  |  |  | 
43 | (K)4(KAYAEY)2KAKAEYA-NH2 [compound 17] | - | - |  |  |  |  | 
44 | (ClAcK)4(KAYE)2KAKYAEA-NH2) [ClAc13] | - | - |  |  |  |  | 
45 | (KAK)4(KEKA)2KAKEAYCA-NH2 [compound 33] |  | - |  | - | − |  | 
46 | (AcKAA)4(KYYE)2KAY-NH2 [Ac19] |  | - |  |  |  |  | 
47 | (KAA)8(KKAKAK)4(KAAKKY)2KEKAKCA-OH [compound 30] |  | - |  |  |  |  | 
48 | (KAA)4(KEY)2KAKEYEYA-NH2 [compound 24] |  | - |  |  |  |  | 
